In experiment [1] the target is GDP-bound NRAS wild-type protein (Homo sapiens, UniProt P01111). The experiment is described as follows: Binding to NRAS by surface plasmon resonance (SPR), Single Cycle Kinetics. The conditions noted are these: SPR. A general note: In SPR one partner is held on a chip, and binding of the other changes the refractive index at the surface.
In experiment [2] the target is GDP-bound HRAS wild-type protein (Homo sapiens, UniProt P01112). The experiment is described as follows: Binding to HRAS by surface plasmon resonance (SPR), Single Cycle Kinetics. The conditions noted are these: SPR.
Setting [3] is: KD ratio, GDP-bound NRAS wild-type vs GDP-bound KRAS wild-type.
Where [4] appears, read: KD ratio, GDP-bound HRAS wild-type vs GDP-bound KRAS wild-type.

The source of these data is US20250230193A1, “CYCLIC COMPOUND HAVING SELECTIVE KRAS INHIBITORY EFFECT ON HRAS AND NRAS” (CHUGAI SEIYAKU KABUSHIKI KAISHA, priority 2022, published 2025).

SMILES strings stand for the structures. Where a SMILES comes first, the peptide text is derived from it. Bridges are numbered along the chain shown (N, C = ends). [ ]: non-standard residue; d: D form. hPhe(3-Cl-4-CF3) = N[C@@H](CCc1ccc(C(F)(F)F)c(Cl)c1)C(=O)O; NPrPhe(4-CF3) = CCCN[C@@H](Cc1ccc(C(F)(F)F)cc1)C(=O)O; NMeGly(cPent) = CN[C@H](C(=O)O)C1CCCC1; Pro(4,4-F2) = O=C(O)[C@@H]1CC(F)(F)CN1; NMeD = CN[C@@H](CC(=O)O)C(=O)O; NMeL = CN[C@@H](CC(C)C)C(=O)O; Aze = O=C(O)[C@@H]1CCN1; Ac4c = NC1(C(=O)O)CCC1; Sar = CNCC(=O)O

GDP-bound HRAS wild-type protein, sequence (P01112 whole entry): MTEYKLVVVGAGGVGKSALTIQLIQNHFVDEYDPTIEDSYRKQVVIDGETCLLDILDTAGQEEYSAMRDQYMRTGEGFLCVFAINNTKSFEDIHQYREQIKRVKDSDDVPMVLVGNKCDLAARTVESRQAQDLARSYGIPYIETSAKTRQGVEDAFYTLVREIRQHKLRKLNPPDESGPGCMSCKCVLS
GDP-bound NRAS wild-type protein, sequence (P01111 whole entry): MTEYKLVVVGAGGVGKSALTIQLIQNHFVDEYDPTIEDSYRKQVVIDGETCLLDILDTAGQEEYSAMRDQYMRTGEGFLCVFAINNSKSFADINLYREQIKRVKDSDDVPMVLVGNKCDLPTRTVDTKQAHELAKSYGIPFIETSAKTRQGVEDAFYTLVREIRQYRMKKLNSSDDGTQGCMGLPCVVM

In the case of `CC[C@H](C)[C@@H]1NC(=O)[C@H](CC)N(C)C(=O)C[C@@H](C(=O)N(C)C)N(C)C(=O)[C@H](C2CCCC2)N(C)C(=O)C2(CC(C)(C)C2)NC(=O)[C@@H]2C[C@H](C)CN2C(=O)[C@H](CCc2cc(F)c(C(F)(F)F)c(F)c2)NC(=O)CN(C)C(=O)[C@H](Cc2ccc(C)cc2)N2CC/C=C\C[C@@H](C2=O)N(C)C(=O)CN(C)C1=O` [PP1856], the “NRAS/KRAS (ratio of KD value for NRAS to KD value for KRAS)” value in experiment [1] (setting [3]) was “A (a compound having 10 or more and less than 20 is denoted as A)”. The “HRAS/KRAS (ratio of KD value for HRAS to KD value for KRAS)” value in experiment [2] (setting [4]) is “A (a compound having 10 or more and less than 20 is denoted as A)”.

`CCO[C@@H]1C[C@H]2C(=O)NC3(CC(F)(F)C3)C(=O)N(C)[C@@H](C3CCCC3)C(=O)N(C)[C@H](C(=O)N3CCOCC3)CC(=O)N(C)[C@@H](CC(C)C)C(=O)N[C@@H]([C@@H](C)CC)C(=O)N(C)CC(=O)N(C)[C@H]3CC=C(C)CN(C3=O)[C@@H](Cc3ccc(C(F)(F)F)cc3)C(=O)N(C)CC(=O)N[C@@H](CCc3cc(F)c(C(F)(F)F)c(F)c3)C(=O)N2C1` [PP0828]: the “NRAS/KRAS (ratio of KD value with respect to NRAS to KD value with respect to KRAS)” value in experiment [1] (setting [3]) was “C (A compound having a KD ratio of 0.1 or more and less than 3 is denoted as C)”. Moreover, in experiment [2] (setting [4]), the “HRAS/KRAS (ratio of KD value with respect to HRAS to KD value with respect to KRAS)” value was “C (A compound having a KD ratio of 0.1 or more and less than 3 is denoted as C)”.

Consider `CCCN1C(=O)CN(C)C(=O)CNC(=O)[C@H]([C@@H](C)CC)NC(=O)[C@H](CC(C)C)N(C)C(=O)C[C@@H](C(=O)N(C)C)N(C)C(=O)[C@H](C2CCCC2)N(C)C(=O)C2(CCC2)NC(=O)[C@@H]2CC(F)(F)CN2C(=O)[C@H](CCc2ccc(C(F)(F)F)c(Cl)c2)NC(=O)CN(C)C(=O)[C@@H]1Cc1ccc(C(F)(F)F)cc1` [PP0420] ([NMeL]IG[Sar][NPrPhe(4-CF3)][Sar][hPhe(3-Cl-4-CF3)][Pro(4,4-F2)][Ac4c][NMeGly(cPent)][NMeD]-NMe2; lactam N-11), for which the “NRAS/KRAS (ratio of KD value with respect to GDP-bound NRAS wild-type protein to KD value with respect to KRAS)” value in experiment [1] is “B (a compound having 3 or more and less than 10 is denoted as B)”. Besides, the “HRAS/KRAS (ratio of KD value with respect to GDP-bound HRAS wild-type protein to KD value with respect to KRAS)” value in experiment [2] was “C (A compound having a KD ratio of 0.1 or more and less than 3 is denoted as C)”.

Turning to `CCO[C@@H]1C[C@H]2C(=O)NC3(CCC3)C(=O)N(C)[C@@H](C3CCCC3)C(=O)N(C)[C@H](C(=O)N3CCOCC3)CC(=O)N(C)[C@@H](C)C(=O)N[C@@H]([C@@H](C)CC)C(=O)N(C)CC(=O)N(C)[C@H]3CCCCN(C3=O)[C@@H](Cc3ccc(C(F)(F)F)cc3)C(=O)N(C)CC(=O)N[C@@H](CCc3cc(F)c(C(F)(F)F)c(F)c3)C(=O)N2C1` [PP0585], in experiment [1], the “NRAS/KRAS (ratio of KD value with respect to GDP-bound NRAS wild-type protein to KD value with respect to KRAS)” value is “B (a compound having 3 or more and less than 10 is denoted as B)”. Further, the “HRAS/KRAS (ratio of KD value with respect to GDP-bound HRAS wild-type protein to KD value with respect to KRAS)” value in experiment [2] was “B (a compound having 3 or more and less than 10 is denoted as B)”.

Turning to `CCCN1C(=O)[C@@H]2CCN2C(=O)CN(C)C(=O)[C@H]([C@@H](C)CC)NC(=O)[C@H](CC(C)C)N(C)C(=O)C[C@@H](C(=O)N(C)C)N(C)C(=O)[C@H](C2CCCC2)N(C)C(=O)C2(CCC2)NC(=O)[C@@H]2CC(F)(F)CN2C(=O)[C@H](CCc2ccc(C(F)(F)F)c(Cl)c2)NC(=O)CN(C)C(=O)[C@@H]1Cc1ccc(C(F)(F)F)cc1` [PP0443] ([NMeL]I[Sar][Aze][NPrPhe(4-CF3)][Sar][hPhe(3-Cl-4-CF3)][Pro(4,4-F2)][Ac4c][NMeGly(cPent)][NMeD]-NMe2; lactam N-11), the “NRAS/KRAS (ratio of KD value with respect to GDP-bound NRAS wild-type protein to KD value with respect to KRAS)” value in experiment [1] is “C (A compound having a KD ratio of 0.1 or more and less than 3 is denoted as C)”. The “HRAS/KRAS (ratio of KD value with respect to GDP-bound HRAS wild-type protein to KD value with respect to KRAS)” value in experiment [2] was “C (A compound having a KD ratio of 0.1 or more and less than 3 is denoted as C)”.

As for `CCCN(C)C(=O)[C@@H]1CC(=O)N(C)[C@@H](C(C)C)C(=O)N[C@@H]([C@@H](C)CC)C(=O)N(C)CC(=O)N(C)[C@H]2C/C=C\CCN(C2=O)[C@@H](Cc2ccc(C(F)(F)F)cc2)C(=O)N(C)CC(=O)N[C@@H](CCc2cc(F)c(C(F)(F)F)c(F)c2)C(=O)N2C[C@@H](C)C[C@H]2C(=O)NC2(CCC2)C(=O)N(C)[C@@H](C2CCCC2)C(=O)N1C` [PP2079], the “NRAS/KRAS (ratio of KD value with respect to NRAS to KD value with respect to KRAS)” value in experiment [1] (GDP-bound NRAS wild-type vs GDP-bound KRAS wild-type) is “A (a compound having 10 or more and less than 20 is denoted as A)”. In addition, the “HRAS/KRAS (ratio of KD value with respect to HRAS to KD value with respect to KRAS)” value in experiment [2] (GDP-bound HRAS wild-type vs GDP-bound KRAS wild-type) is “A (a compound having 10 or more and less than 20 is denoted as A)”.

For `CCO[C@@H]1C[C@H]2C(=O)NC3(CCC3)C(=O)N(C)[C@@H](C3CCCC3)C(=O)N(C)[C@H](C(=O)N3CCOCC3)CC(=O)N(C)[C@@H](CC(C)C)C(=O)N[C@@H]([C@@H](C)CC)C(=O)N(C)CC(=O)N(C)[C@H]3CC=CCN(C3=O)[C@@H](Cc3ccc(C(F)(F)F)cc3)C(=O)N(C)CC(=O)N[C@@H](CCc3cc(F)c(C(F)(F)F)c(F)c3)C(=O)N2C1` [PP0832], the “NRAS/KRAS (ratio of KD value with respect to NRAS to KD value with respect to KRAS)” value in experiment [1] (setting [3]) is “C (A compound having a KD ratio of 0.1 or more and less than 3 is denoted as C)”. For the same molecule, the “HRAS/KRAS (ratio of KD value with respect to HRAS to KD value with respect to KRAS)” value in experiment [2] (setting [4]) was “C (A compound having a KD ratio of 0.1 or more and less than 3 is denoted as C)”.
